Reference: patent publication US20190211020A1 (Agency for Science, Technology and Research, priority 2012, published 2019)
Where a name gives a salt, the structure may show the parent alone. Read-outs that look alike come from different tables or passages of the source.

Tested on: eIF4E Ser209 phosphorylation in Hela cells
Assay: MNK cell-based assay (AlphaScreen SureFire, eIF4E Ser209 phosphorylation)
Settings: Homo sapiens, read-out: IC50 Hela
From the text: It has been reported that Ser209 of eIF4E is solely phosphorylated by the MNK enzymes. The ability of compounds to inhibit this process in Hela cells was investigated using the AlphaScreen SureFire® assay platform from Perkin Elmer (Waltham, Mass.). eIF4E phosphorylated on Ser209 is recognized by two antibodies, the first which is fused to a streptavidin coated donor bead binds to an epitope away from Ser209, the second which is fused to a protein A conjugated acceptor bead binds to phosphorylated Ser209. The phosphorylation of eIF4E on Ser209 brings the two antibodies into close proximity and when excited by a laser a singlet oxygen is released by the donor bead which excites the acceptor bead resulting in the emission of light. This enables the monitoring of eIF4E Ser209 phosphorylation and its inhibition in a cellular context.
Hela cells were seeded into microtitre plates (30,000 cells per well) in 100 μl of culture medium and incubated at 37° C. for 24 hours. The media was then removed by aspiration and the cells resuspended in 50 μl of serum free medium containing the test compound and incubated at 37° C. for 2 hours. The culture medium was again removed by aspiration and the cells resuspended in lysis buffer (provided in Perkin Elmer SureFire® Assay Kit). After agitation at 350 rpm for 20 minutes at 22° C., 4 μl was transferred to a 384 well OptiPlate™ (Perkin Elmer, Waltham, Mass.). To each well was added 5 μl of acceptor mix; the plate was sealed and agitated gently at 22° C. for 2 hours. Then, in subdued light, 2 μl of donor mix was added to each well, the plate was sealed, wrapped in aluminum foil and agitated gently at 22° C. for 2 hours. Emission was measured using the EnVision® plate reader (Perkin Elmer, Waltham, Mass.).
Inhibition constants (IC50) were determined by plotting AlphaScreen signal versus log compound concentration and fitting with a non-linear regression algorithm using GraphPad Prism (GraphPad Software Inc.).

[1] = eIF4E Ser209 phosphorylation, Hela cells, 2 hours

SMILES | IC50 [1] | IC50 (HeLa, 2 h)
CC1(C)CCN(C(=O)c2ccc(-c3cn4c(-c5ccc(C(N)=O)cc5)cnc4cn3)cc2)CC1 [Example 3, 4-(6-(4-(4,4-dimethylpiperidine-1-carbonyl)phenyl)imidazo[1,2-a]pyrazin-3-yl)benzamide] | < 1 µM | 
NC(=O)c1ccc(-c2cnc3cnc(-c4ccc(C(=O)N5CCC(N)CC5)cc4)cn23)cc1 [Example 4, 4-(6-(4-(4-aminopiperidine-1-carbonyl)phenyl)imidazo[1,2-a]pyrazin-3-yl) benzamide hydrochloride] | < 1 µM | 
CC(C)(C)N1CCN(C(=O)c2ccc(-c3cn4c(-c5ccc(C(N)=O)cc5)cnc4cn3)cc2)CC1 [Example 5, 4-(6-(4-(4-tert-butylpiperazine-1-carbonyl)phenyl)imidazo [1,2-a]pyrazin-3-yl)benzamide] | < 1 µM | 
N#Cc1ccc(-c2cnc3cnc(-c4ccc(C(=O)N5CCOCC5)cc4)cn23)cc1 [Example 7, 4-(6-(4-(morpholine-4-carbonyl)phenyl)imidazo[1,2-a]pyrazin-3-yl)benzonitrile] | < 1 µM | 
CNC1CCN(C(=O)c2ccc(-c3cn4c(-c5ccc(C#N)cc5)cnc4cn3)cc2)CC1 [Example 9, 4-(6-(4-(4-(methylamino)piperidine-1-carbonyl)phenyl)imidazo[1,2-a]pyrazin-3-yl)benzonitrile] | < 1 µM | 
N#Cc1ccc(-c2cnc3cnc(-c4ccc(C(=O)N5CCN(C6CC6)CC5)cc4)cn23)cc1 [Example 14, 4-(6-(4-(4-cyclopropylpiperazine-1-carbonyl)phenyl)imidazo[1,2-a]pyrazin-3-yl)benzonitrile] | < 1 µM | 
N#Cc1ccc(-c2cnc3cnc(-c4ccc(C(=O)N5CCC(O)CC5)cc4)cn23)cc1 [Example 15, 4-(6-(4-(4-hydroxypiperidine-1-carbonyl)phenyl)imidazo [1,2-a]pyrazin-3-yl)benzonitrile] | < 1 µM | 
CN1CCCN(C(=O)c2ccc(-c3cn4c(-c5ccc(C#N)cc5)cnc4cn3)cc2)CC1 [Example 17, 4-(6-(4-(4-methyl-1,4-diazepane-1-carbonyl)phenyl)imidazo [1,2-a]pyrazin-3-yl)benzonitrile] | < 1 µM | 
CN(C)C1CCN(C(=O)c2ccc(-c3cn4c(-c5ccc(C#N)cc5)cnc4cn3)cc2)CC1 [Example 21, 4-(6-(4-(4-(dimethylamino)piperidine-1-carbonyl)phenyl)imidazo [1,2-a]pyrazin-3-yl)benzonitrile] | < 1 µM | 
CC1(N)CCN(C(=O)c2ccc(-c3cn4c(-c5ccc(C#N)cc5)cnc4cn3)cc2)CC1 [Example 23, 4-(6-(4-(4-amino-4-methylpiperidine-1-carbonyl)phenyl)imidazo[1,2-a]pyrazin-3-yl)benzonitrile hydrochloride salt] | < 1 µM | 
N#Cc1ccc(-c2cnc3cnc(-c4ccc(C(=O)N5CCC6(CC5)COC6)cc4)cn23)cc1 [Example 24, 4-(6-(4-(2-oxa-7-azaspiro[3.5]nonane-7-carbonyl)phenyl)imidazo[1,2-a]pyrazin-3-yl)benzonitrile] | < 1 µM | 
CC(C)(C)N1CCN(C(=O)c2ccc(-c3cn4c(-c5ccc(C#N)cc5)cnc4cn3)cc2)CC1 [Example 26, 4-(6-(4-(4-tert-butylpiperazine-1-carbonyl)phenyl)imidazo[1,2-a]pyrazin-3-yl)benzonitrile] | < 1 µM | 
Cc1cc(-c2cn3c(-c4ccc(C#N)cc4)cnc3cn2)ccc1C(=O)N1CCC(C)(N)CC1 [Example 28, 4-(6-(4-(4-amino-4-methylpiperidine-1-carbonyl)-3-methylphenyl)imidazo [1,2-a]pyrazin-3-yl)benzonitrile] | < 1 µM | 
N#Cc1ccc(-c2cnc3cnc(-c4ccc(C(=O)N5CCC(N)CC5)c(F)c4)cn23)cc1 [Example 29, 4-(6-(4-(4-aminopiperidine-1-carbonyl)-3-fluorophenyl)imidazo[1,2-a]pyrazin-3-yl)benzonitrile] | < 1 µM | 
CC1(N)CCN(C(=O)c2ccc(-c3cn4c(-c5ccc(C#N)cc5)cnc4cn3)cc2F)CC1 [Example 30, 4-(6-(4-(4-amino-4-methylpiperidine-1-carbonyl)-3-fluorophenyl)imidazo[1,2-a]pyrazin-3-yl)benzonitrile] | < 1 µM | 
N#Cc1ccc(-c2cnc3cnc(-c4ccc(C(=O)N5CCC(N)CC5)c(Cl)c4)cn23)cc1 [Example 31, 4-(6-(4-(4-aminopiperidine-1-carbonyl)-3-chlorophenyl)imidazo[1,2-a]pyrazin-3-yl)benzonitrile] | < 1 µM | 
CC1(N)CCN(C(=O)c2ccc(-c3cn4c(-c5ccc(C#N)cc5)cnc4cn3)cc2Cl)CC1 [Example 32, 4-(6-(4-(4-amino-4-methylpiperidine-1-carbonyl)-3-chlorophenyl)imidazo[1,2-a]pyrazin-3-yl)benzonitrile] | < 1 µM | 

SMILES | IC50 [1] | IC50 (HeLa, 2 h)
CN1CCN(C(=O)c2ccc(-c3cn4c(-c5ccc(C#N)cc5)cnc4cn3)c(O)c2)CC1 [Example 38, 4-(6-(2-hydroxy-4-(4-methylpiperazine-1-carbonyl)phenyl)imidazo [1,2-a]pyrazin-3-yl)benzonitrile] | < 1 µM | 
COc1cc(-c2cn3c(-c4ccc(C#N)cc4)cnc3cn2)ccc1C(=O)N1CCN(C)CC1 [Example 39, 4-(6-(3-methoxy-4-(4-methylpiperazine-1-carbonyl)phenyl)imidazo[1,2-a]pyrazin-3-yl)benzonitrile] | < 1 µM | 
CN1CCN(C(=O)c2ccc(-c3cn4c(-c5ccc(Cl)cc5)cnc4cn3)cc2)CC1 [Example 41, (4-(3-(4-chlorophenyl)imidazo [1,2-a]pyrazin-6-yl)phenyl)(4-methylpiperazin-1-yl)methanone] | < 1 µM | 
NC(=O)c1ccc(-c2cn3c(-c4ccc(Cl)cc4)cnc3cn2)cc1 [Example 42, 4-(3-(4-chlorophenyl)imidazo[1,2-a]pyrazin-6-yl)benzamide] | < 1 µM | 
O=C1CCN(C(=O)c2ccc(-c3cn4c(-c5ccc(Cl)cc5)cnc4cn3)cc2)CC1 [Example 43, 1-(4-(3-(4-chlorophenyl)imidazo[1,2-a]pyrazin-6-yl)benzoyl)piperidin-4-one] |  | < 1 µM
CCN1CCN(C(=O)c2ccc(-c3cn4c(-c5ccc(Cl)cc5)cnc4cn3)cc2)CC1 [Example 45, (4-(3-(4-chlorophenyl)imidazo [1,2-a]pyrazin-6-yl)phenyl)(4-ethylpiperazin-1-yl)methanone] | < 1 µM | 
O=C(c1ccc(-c2cn3c(-c4ccc(Cl)cc4)cnc3cn2)cc1)N1CCNCC1 [Example 46, (4-(3-(4-chlorophenyl)imidazo[1,2-a]pyrazin-6-yl)phenyl)(piperazin-1-yl)methanone 2,2,2-trifluoroacetate salt] | < 1 µM | 
O=C(c1ccc(-c2cn3c(-c4ccc(Cl)cc4)cnc3cn2)cc1)N1CCC(NC(=O)C(F)(F)F)CC1 [Example 48, N-(1-(4-(3-(4-chlorophenyl)imidazo [1,2-a]pyrazin-6-yl)benzoyl)piperidin-4-yl)-2,2,2-trifluoroacetamide] | < 1 µM | 
N#Cc1ccc(-c2cnc3ccc(-c4ccc(C(=O)N5CCC(O)CC5)cc4)nn23)cc1 [Example 55, 4-(6-(4-(4-hydroxypiperidine-1-carbonyl)phenyl)imidazo [1,2-b]pyridazin-3-yl)benzonitrile] | < 1 µM | 
N#Cc1ccc(-c2cnc3ccc(-c4ccc(C(=O)N5CCC(N)CC5)cc4)nn23)cc1 [Example 56, 4-(6-(4-(4-aminopiperidine-1-carbonyl)phenyl)imidazo[1,2-b]pyridazin-3-yl)benzonitrile] | < 1 µM | 
CC(=O)NC1CCN(C(=O)c2ccc(-c3ccc4ncc(-c5ccc(C#N)cc5)n4n3)cc2)CC1 [Example 57, N-(1-(4-(3-(4-cyanophenyl)imidazo[1,2-b]pyridazin-6-yl)benzoyl)piperidin-4-yl)acetamide] | < 1 µM | 
CC1(N)CCN(C(=O)c2ccc(-c3ccc4ncc(-c5ccc(C#N)cc5)n4n3)cc2)CC1 [Example 58, 4-(6-(4-(4-amino-4-methylpiperidine-1-carbonyl)phenyl)imidazo[1,2-b]pyridazin-3-yl)benzonitrile] | < 1 µM | 
CC(C)N1CCN(C(=O)c2ccc(-c3ccc4ncc(-c5ccc(C#N)cc5)n4n3)cc2)CC1 [Example 59, 4-(6-(4-(4-isopropylpiperazine-1-carbonyl)phenyl)imidazo [1,2-b]pyridazin-3-yl)benzonitrile] | < 1 µM | 
CNC1CCN(C(=O)c2ccc(-c3ccc4ncc(-c5ccc(C#N)cc5)n4n3)cc2)CC1 [Example 60, 4-(6-(4-(4-(methylamino)piperidine-1-carbonyl)phenyl)imidazo[1,2-b]pyridazin-3-yl)benzonitrile] | < 1 µM | 
CN(C)C1CCN(C(=O)c2ccc(-c3ccc4ncc(-c5ccc(C#N)cc5)n4n3)cc2)CC1 [Example 63] | < 1 µM | 
N#Cc1ccc(-c2cnc3ccc(-c4ccc(C(=O)N5CCCOCC5)cc4)nn23)cc1 [Example 64, 4-(6-(4-(1,4-oxazepane-4-carbonyl)phenyl)imidazo[1,2-b]pyridazin-3-yl)benzonitrile] | < 1 µM | 
